Laboratory results taken from patent publication US20240197729A1, “ALK-5 Inhibitors and Uses Thereof” (Sumitomo Pharma Oncology, Inc., priority 2021, published 2024).
Where two headings read alike, the source gives them in different places. Blank lines part the entries; values can stand above or below the compound they belong to.

Legend:
[1] = system: phospho-SMAD2 (S465/S467); assay: Phospho-SMAD2 assay in RDSR cells; type: cell-based; settings: Homo sapiens, 0.5 h, 100 ng/ml TGF-β1, 30 minutes
Text: TGF-β is a pleiotropic cytokine involved in extremely conserved pathways relevant to cell growth, differentiation, and development. TGF-β signaling is triggered when the activated TGF-β homodimer binds to the TGF-β receptor 2 (TGFbR2), which in turn leads to the recruitment and phosphorylation of TGF-β receptor 1 (TGFbR1). Activated TGFbR1 phosphorylates the signal transduction molecules SMAD2 and SMAD3, which then bind to the common mediator SMAD4 and translocate to the nucleus where they alter gene transcription. In this assay, phospho-SMAD2 (S465/S467), a direct phosphorylation substrate of TGFbR1, was used as a readout of TGF-β pathway activity. Vactosertib (a TGFbR1 inhibitor available from MedChem Express HY-19928) was included as a positive control.
The RD SMAD reporter (RDSR) cell line was generated by stably integrating the SMAD reporter plasmid (Promega, pGL4.48[luc2P/SBE/Hygro]) into the human rhabdomyosarcoma cell line RD (ATCC, CCL-136).
RDSR cells were seeded in DMEM (ATCC30-2002)+10% FBS in 96-well plate and allowed to grow overnight at 5% CO2 and 37° C. The next day, cells were pre-treated with Compound 04, Compound 01 or vactosertib at various concentrations, or with vehicle (DMSO), for one hour. Cells were then stimulated with recombinant human TGF-β1 (R&D Systems 7754-BH-005) at a final concentration of 100 ng/ml, in the presence of Compound 04, Compound 01, vactosertib, or DMSO for thirty minutes. A no-TGF-β1 stimulation condition was included for baseline phospho-SMAD2 level measurement.
The phospho-SMAD2 levels were determined using the Bio-Plex Pro™ Phospho-Smad2 (Ser465/Ser467) bead/antibody set (BioRad 171V50019M). Phospho-SMAD2 levels were normalized to ß-tubulin (MILLIPLEX MAP ß-Tubulin Total Magnetic Bead MAPmate™, Millipore 46-713MAG) or GAPDH (MILLIPLEX MAP GAPDH Total Magnetic Bead MAPmate™, Millipore 46-667MAG) levels from each sample. All samples were analyzed in a multiplex fashion with the Bio-Plex Pro Cell Signaling Reagent Kit (BioRad 171304006M). […] Bead suspension was analyzed using the Luminex system (MAGPIX). […]

[2] = system: TGF-β1-mediated αSMA expression; assay: Fibroblast to myofibroblast transformation (FMT) assay; settings: for IC50: Homo sapiens, Fibroblast; for inhibition of TGF-β1-mediated αSMA expression: all three IPF donors; for loss of nuclei: donor IPF03, highest test concentration (10 μM); for modulation of the number of nuclei: donors IPF06 and IPF08; for Potentially toxic concentration: lowest concentration with >25% loss of nuclei
Description: To test the ability of selected compounds to inhibit the TGF-β1-dependent transition of fibroblasts to myofibroblasts in a relevant disease model of IPF, an FMT assay was performed using lung fibroblasts from IPF patients. In this assay, the transition of fibroblasts to myofibroblasts is determined by the expression of the biomarker alpha smooth muscle actin (α-SMA).
Primary human bronchial fibroblasts derived from IPF patients were seeded on day zero and the media was refreshed on day two. On day five, selected compounds or controls were added at an eight-point concentration response curve starting at 10 μM (semi-log dilutions). Each drug concentration condition was evaluated in biological duplicates. […] Seventy-two hours following TGF-beta addition, the cells were fixed with formaldehyde. High content imaging evaluating cell number using the nuclear stain DAPI as well as the expression of a-SMA was performed. The following controls were run alongside the selected compounds: vactosertib and the approved IPF drug nintedanib (at an eight-point, semi-log curve with 10 μM starting concentration). As a negative control 0.1% DMSO was also used, matching the DMSO concentration in treated wells. The following calculations were used to determine cell number as well as percent inhibition (PIN) of alpha SMA expression:
• Segmentation and quantification of αSMA immunoreactivity by an HCA algorithm, with density×area (D×A) output • Data normalization of raw αSMA (D×A) to percentage inhibition (PIN) values, on a plate-to-plate basis
• DAPI fluorescence applied for HCA-based quantification of the number of imaged cells, on a plate-to-plate basis
[formula] • μn is the average numbers of nuclei of the vehicle control (TGF-β1+0.1% DMSO) • Xi is the compound number of nuclei

[3] = read-out: Average IC50 (nM), average of donors IPF03, IPF06, IPF08
[4] = read-out: IC50 αSMA, donor IPF03
[5] = read-out: IC50 αSMA, donor IPF06
[6] = read-out: IC50 αSMA, donor IPF08
[7] = read-out: pIC50 αSMA, donor IPF03 (converted)
[8] = read-out: pIC50 αSMA, donor IPF06 (converted)
[9] = read-out: pIC50 αSMA, donor IPF08 (converted)

SMILES: Clc1cccc2c(Nc3ccnc(Nc4cccc(N5CCOCC5)c4)c3)cnnc12 [Compound 04, N4-(8-chlorocinnolin-4-yl)-N2-[3-(morpholin-4-yl)phenyl]pyridine-2,4-diamine]
IC50 [1]: < 0.2 µM
IC50 [2, 3]: 40 nM
IC50 [2, 4]: 40 nM
IC50 [2, 5]: 50 nM
IC50 [2, 6]: 30 nM
IC50 [2, 7]: 39.8 nM
IC50 [2, 8]: 50.1 nM
IC50 [2, 9]: 31.6 nM
inhibition of TGF-β1-mediated αSMA expression [2]: full concentration-dependent inhibition
Max PIN (%) ([2]; donor IPF03): 107%
loss of nuclei [2]: < 25%
Max PIN (%) ([2]; donor IPF06): 106%
Max PIN (%) ([2]; donor IPF08): 100%
modulation of the number of nuclei [2]: No modulation of the number of nuclei was observed

SMILES: Cc1nn(CC(F)(F)F)cc1Nc1cc(Nc2cnnc3c(C)cccc23)ccn1 [Compound 01, N2-[3-methyl-1-(2,2,2-trifluoroethyl)-1H-pyrazol-4-yl]-N4-(8-methylcinnolin-4-yl)pyridine-2,4-diamine]
IC50 [1]: < 0.2 µM
IC50 [2, 3]: 83.3 nM
IC50 [2, 4]: 100 nM
IC50 [2, 5]: 100 nM
IC50 [2, 6]: 50 nM
IC50 [2, 7]: 100 nM
IC50 [2, 8]: 100 nM
IC50 [2, 9]: 50.1 nM
inhibition of TGF-β1-mediated αSMA expression [2]: full concentration-dependent inhibition
Max PIN (%) ([2]; donor IPF03): 106%
loss of nuclei [2]: > 25%
Potentially toxic concentration ([2]; donor IPF03): 5.0
Max PIN (%) ([2]; donor IPF06): 107%
Max PIN (%) ([2]; donor IPF08): 101%
modulation of the number of nuclei [2]: No modulation of the number of nuclei was observed

SMILES: Cc1cccc2c(Nc3ccnc(Nc4ccc(N5CCOCC5)cc4)c3)cnnc12 [Compound 05, N4-(8-methylcinnolin-4-yl)-N2-[4-(morpholin-4-yl)phenyl]pyridine-2,4-diamine]
IC50 [2, 3]: 50 nM
IC50 [2, 4]: 60 nM
IC50 [2, 5]: 50 nM
IC50 [2, 6]: 40 nM
IC50 [2, 7]: 63.1 nM
IC50 [2, 8]: 50.1 nM
IC50 [2, 9]: 39.8 nM
Max PIN (%) ([2]; donor IPF03): 106%
Potentially toxic concentration ([2]; donor IPF03): 5.0
Max PIN (%) ([2]; donor IPF06): 106%
Max PIN (%) ([2]; donor IPF08): 101%

IC50 [1]: < 0.2 µM
SMILES: Cc1cccc(-c2[nH]c(CNc3ccccc3F)nc2-c2ccc3ncnn3c2)n1 [Vactosertib, vactosertib, reference compound]
IC50 [2, 3]: 38.3 nM
IC50 [2, 4]: 50 nM
IC50 [2, 5]: 40 nM
IC50 [2, 6]: 25 nM
IC50 [2, 7]: 50.1 nM
IC50 [2, 8]: 39.8 nM
IC50 [2, 9]: 25.1 nM
Max PIN (%) ([2]; donor IPF03): 105%
Max PIN (%) ([2]; donor IPF06): 104%
Max PIN (%) ([2]; donor IPF08): 102%
